Consider 35 compounds from US7943619B2, “Isoxazolo-pyridazine derivatives” (priority 2007, dated 2011).

Counter-ions that a name gives are not always drawn.

human GABA A receptor α5β3γ2 (α5 subunit), sequence (P31644 32-462): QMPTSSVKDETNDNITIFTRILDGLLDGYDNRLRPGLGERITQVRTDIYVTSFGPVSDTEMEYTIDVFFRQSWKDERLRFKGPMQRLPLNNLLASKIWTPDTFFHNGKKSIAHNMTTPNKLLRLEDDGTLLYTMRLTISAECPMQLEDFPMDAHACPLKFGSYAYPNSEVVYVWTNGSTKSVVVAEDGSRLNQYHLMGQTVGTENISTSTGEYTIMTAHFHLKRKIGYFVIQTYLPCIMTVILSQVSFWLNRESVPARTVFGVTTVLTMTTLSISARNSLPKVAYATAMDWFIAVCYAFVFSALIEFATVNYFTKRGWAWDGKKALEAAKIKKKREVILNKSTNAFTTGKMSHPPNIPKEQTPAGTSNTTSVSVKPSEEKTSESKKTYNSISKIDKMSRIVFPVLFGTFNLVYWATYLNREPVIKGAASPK
human GABA A receptor α5β3γ2 (α5 subunit), sequence (P28472 26-473 partner): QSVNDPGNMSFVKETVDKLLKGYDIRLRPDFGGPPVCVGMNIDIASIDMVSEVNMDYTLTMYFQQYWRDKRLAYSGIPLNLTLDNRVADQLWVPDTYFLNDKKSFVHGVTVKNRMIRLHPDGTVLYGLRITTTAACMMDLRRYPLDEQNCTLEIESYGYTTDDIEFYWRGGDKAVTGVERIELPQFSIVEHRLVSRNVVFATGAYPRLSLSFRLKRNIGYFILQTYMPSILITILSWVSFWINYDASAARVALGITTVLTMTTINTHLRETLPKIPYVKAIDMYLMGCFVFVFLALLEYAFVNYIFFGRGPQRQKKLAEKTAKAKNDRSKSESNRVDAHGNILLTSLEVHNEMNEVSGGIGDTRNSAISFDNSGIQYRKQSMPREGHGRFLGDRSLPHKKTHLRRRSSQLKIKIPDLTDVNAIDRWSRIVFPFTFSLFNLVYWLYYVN
human GABA A receptor α5β3γ2 (α5 subunit), sequence (P18507 40-475): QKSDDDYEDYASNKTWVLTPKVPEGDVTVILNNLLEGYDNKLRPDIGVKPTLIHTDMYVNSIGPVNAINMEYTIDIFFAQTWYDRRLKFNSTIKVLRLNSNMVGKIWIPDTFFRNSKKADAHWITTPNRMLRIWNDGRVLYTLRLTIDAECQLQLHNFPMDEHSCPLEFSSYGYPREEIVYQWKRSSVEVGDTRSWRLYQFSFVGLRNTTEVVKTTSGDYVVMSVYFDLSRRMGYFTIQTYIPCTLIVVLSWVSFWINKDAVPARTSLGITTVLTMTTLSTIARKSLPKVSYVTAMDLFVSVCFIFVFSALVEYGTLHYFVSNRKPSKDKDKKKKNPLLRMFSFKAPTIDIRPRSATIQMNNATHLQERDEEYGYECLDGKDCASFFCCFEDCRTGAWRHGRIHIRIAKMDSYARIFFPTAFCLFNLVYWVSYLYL

One experiment addresses human GABA A receptor α5β3γ2 (α5 subunit) (Homo sapiens, UniProt P18507+P31644). The experiment is described as follows: biochemical. Format: binding.
Settings: not given
On the procedure: The affinity of compounds at GABA A receptor subtypes was measured by competition for [3H]flumazenil (85 Ci/mmol; Roche) binding to HEK293 cells expressing rat (stably transfected) or human (transiently transfected) receptors of composition α1β3γ2, α2β3γ2, α3β3γ2 and α5β3γ2.
Cell pellets were suspended in Krebs-tris buffer (4.8 mM KCl, 1.2 mM CaCl2, 1.2 mM MgCl2, 120 mM NaCl, 15 mM Tris; pH 7.5; binding assay buffer), homogenized by polytron for ca. 20 sec on ice and centrifuged for 60 min at 4° C. (50000 g; Sorvall, rotor: SM24=20000 rpm). The cell pellets were resuspended in Krebs-tris buffer and homogenized by polytron for ca. 15 sec on ice. Protein was measured (Bradford method, Bio-Rad) and aliquots of 1 mL were prepared and stored at −80° C.
Assays were incubated to equilibrium for 1 hour at 4° C. and harvested onto GF/C uni-filters (Packard) by filtration using a Packard harvester and washing with ice-cold wash buffer (50 mM Tris; pH 7.5). After drying, filter-retained radioactivity was detected by liquid scintillation counting. Ki values were calculated using Excel-Fit (Microsoft) and are the means of two determinations.
In turn, `Cc1onc(-c2ccccn2)c1COc1ccc(C(=O)N2CCOCC2)nn1` [Example 96, [6-(5-Methyl-3-pyridin-2-yl-isoxazol-4-ylmethoxy)-pyridazin-3-yl]-morpholin-4-yl-methanone] came in with a Ki of 25.9 nM.

The same experiment, now with this note: competition for [3H]flumazenil binding, HEK293 cells transiently expressing human receptors; means of two determinations; read-out: hKi.
Regarding `CCOC(=O)c1cc(C)c(OCc2c(-c3ccccc3)noc2C)nn1` [Example 40, 5-Methyl-6-(5-methyl-3-phenyl-isoxazol-4-ylmethoxy)-pyridazine-3-carboxylic acid ethyl ester], the Ki was 2.2 nM.
The same measure, in the same setting: then `Cc1onc(-c2ccncn2)c1COc1ccc(C(=O)NCCO)nn1` [Example 114, 6-(5-Methyl-3-pyrimidin-4-yl-isoxazol-4-ylmethoxy)-pyridazine-3-carboxylic acid (2-hydroxy-ethyl)-amide], with 4.7 nM; and `Cc1onc(-c2ccccc2)c1COc1ccc(N(C)C)nn1` [Example 38, Dimethyl-[6-(5-methyl-3-phenyl-isoxazol-4-ylmethoxy)-pyridazin-3-yl]-amine], with 8.4 nM; and `COC(=O)C(=O)Nc1ccc(OCc2c(-c3ccccc3)noc2C)nn1` [Example 28, N-[6-(5-Methyl-3-phenyl-isoxazol-4-ylmethoxy)-pyridazin-3-yl]-oxalamic acid methyl ester], with 5.1 nM.
Still for that read-out and setting: the value for `CC(=O)Nc1ccc(OCc2c(-c3ccccc3)noc2C)nn1` [Example 17, N-[6-(5-Methyl-3-phenyl-isoxazol-4-ylmethoxy)-pyridazin-3-yl]-acetamide] was 3.9 nM.
Still for that read-out and setting: the value for `Cc1onc(-c2ccc(F)cc2)c1COc1ccc2nncn2n1` [Example 91, 6-[3-(4-Fluoro-phenyl)-5-methyl-isoxazol-4-ylmethoxy]-[1,2,4]triazolo[4,3-b]pyridazine] was 7.5 nM; that for `Cc1onc(-c2ccc(F)cc2)c1COc1ccc(C(=O)NCC2CC2)nn1` [Example 59, 6-[3-(4-Fluoro-phenyl)-5-methyl-isoxazol-4-ylmethoxy]-pyridazine-3-carboxylic acid cyclopropylmethyl-amide] was 4.6 nM.
On to `Cc1onc(-c2ccccc2)c1COc1ccc(NC(=O)C2CCOCC2)nn1` [Example 25, Tetrahydro-pyran-4-carboxylic acid [6-(5-methyl-3-phenyl-isoxazol-4-ylmethoxy)-pyridazin-3-yl]-amide], for which the Ki amounted to 8.7 nM.
Still for that read-out and setting: then `CCOC(=O)c1ccc(OCc2c(-c3ccccc3)noc2C)nn1` [Example 5, 6-(5-Methyl-3-phenyl-isoxazol-4-ylmethoxy)-pyridazine-3-carboxylic acid ethyl ester], with 5.5 nM.
Consider `Cc1onc(-c2ccccc2)c1COc1ccc(NC(=O)C2CCC2)nn1` [Example 22, Cyclobutanecarboxylic acid [6-(5-methyl-3-phenyl-isoxazol-4-ylmethoxy)-pyridazin-3-yl]-amide], for which the Ki amounted to 10.1 nM.
In the case of `Cc1onc(-c2ccncn2)c1COc1ccc(C(=O)NC(C)(C)CO)nn1` [Example 115, 6-(5-Methyl-3-pyrimidin-4-yl-isoxazol-4-ylmethoxy)-pyridazine-3-carboxylic acid (2-hydroxy-1,1-dimethyl-ethyl)-amide], the Ki was found to be 14.8 nM.
On the same count and under the same terms, the value for `Cc1onc(-c2ccc(F)cn2)c1COc1ccc(Cl)nn1` [Example 110, 3-Chloro-6-[3-(5-fluoro-pyridin-2-yl)-5-methyl-isoxazol-4-ylmethoxy]-pyridazine] was 1.6 nM; that for `Cc1cc(OCc2c(-c3ccccc3)noc2C)nnc1C(=O)NC1CCOCC1` [Example 44, 4-Methyl-6-(5-methyl-3-phenyl-isoxazol-4-ylmethoxy)-pyridazine-3-carboxylic acid (tetrahydro-pyran-4-yl)-amide] was 3.4 nM.
The same measure, in the same setting: the value for `Cc1onc(-c2ccc(Cl)cn2)c1CNc1ccc(C(=O)NC(C)(C)CO)nn1` [Example 119, 6-{[3-(5-Chloro-pyridin-2-yl)-5-methyl-isoxazol-4-ylmethyl]-amino}-pyridazine-3-carboxylic acid (2-hydroxy-1,1-dimethyl-ethyl)-amide] was 7.3 nM; that for `Cc1ccc(OCc2c(-c3ccccc3)noc2C)nn1` [Example 4, 3-Methyl-6-(5-methyl-3-phenyl-isoxazol-4-ylmethoxy)-pyridazine] was 6.2 nM.
In the case of `COc1ccc(OCc2c(-c3ccccc3)noc2C)nn1` [Example 14, 3-Methoxy-6-(5-methyl-3-phenyl-isoxazol-4-ylmethoxy)-pyridazine], the Ki came out at 12.3 nM.
Take `Cc1onc(-c2ccccn2)c1COc1ccc(C(=O)N2CCSCC2)nn1` [Example 104, [6-(5-Methyl-3-pyridin-2-yl-isoxazol-4-ylmethoxy)-pyridazin-3-yl]-thiomorpholin-4-yl-methanone]: the Ki stood at 27.8 nM.
As for `Cc1onc(-c2ccccn2)c1COc1ccc(C(=O)NCC(F)(F)F)nn1` [Example 98, 6-(5-Methyl-3-pyridin-2-yl-isoxazol-4-ylmethoxy)-pyridazine-3-carboxylic acid (2,2,2-trifluoro-ethyl)-amide], the Ki is 2.8 nM.
As to `Cc1cc(C)n(-c2ccc(OCc3c(-c4ccccc4)noc3C)nn2)n1` [Example 39, 3-(3,5-Dimethyl-pyrazol-1-yl)-6-(5-methyl-3-phenyl-isoxazol-4-ylmethoxy)-pyridazine], the Ki was determined as 5.1 nM.
Still for that read-out and setting: then `COCCNC(=O)c1ccc(OCc2c(-c3ccccn3)noc2C)nn1` [Example 106, 6-(5-Methyl-3-pyridin-2-yl-isoxazol-4-ylmethoxy)-pyridazine-3-carboxylic acid (2-methoxy-ethyl)-amide], with 1.6 nM.
With `CNc1ccc(OCc2c(-c3ccccc3)noc2C)nn1` [Example 37, Methyl-[6-(5-methyl-3-phenyl-isoxazol-4-ylmethoxy)-pyridazin-3-yl]-amine HCl], the Ki was 6.3 nM.
Take `Cc1onc(-c2ccc(F)cn2)c1COc1ccc(C(=O)NC(C)(C)CO)nn1` [Example 112, 6-[3-(5-Fluoro-pyridin-2-yl)-5-methyl-isoxazol-4-ylmethoxy]-pyridazine-3-carboxylic acid (2-hydroxy-1,1-dimethyl-ethyl)-amide]: the Ki stood at 1.5 nM.
Same read-out and setting: the value for `Cc1onc(-c2ccccc2)c1COc1ccc(NC(=O)C(C)C)nn1` [Example 20, N-[6-(5-Methyl-3-phenyl-isoxazol-4-ylmethoxy)-pyridazin-3-yl]-isobutyramide] was 7.9 nM; that for `O=C(NC1CC1)c1ccc(OCc2conc2-c2ccccn2)nn1` [Example 124, 6-(3-Pyridin-2-yl-isoxazol-4-ylmethoxy)-pyridazine-3-carboxylic acid cyclopropylamide] was 31.5 nM; that for `CCNC(=O)c1ccc(OCc2c(-c3cccc(F)c3)noc2C)nn1` [Example 51, 6-[3-(3-Fluoro-phenyl)-5-methyl-isoxazol-4-ylmethoxy]-pyridazine-3-carboxylic acid ethylamide] was 6.1 nM.
On the same count and under the same terms, then `Cc1cc(OCc2c(-c3ccccc3)noc2C)nnc1Cl` [Example 41, 3-Chloro-4-methyl-6-(5-methyl-3-phenyl-isoxazol-4-ylmethoxy)-pyridazine], with 2.3 nM.
On the same count and under the same terms, then `Cc1onc(-c2ccncc2)c1COc1ccc(C(=O)NCCO)nn1` [Example 107, 6-(5-Methyl-3-pyridin-4-yl-isoxazol-4-ylmethoxy)-pyridazine-3-carboxylic acid (2-hydroxy-ethyl)-amide], with 23.3 nM; and `Cc1onc(-c2ccc(F)cc2)c1COc1ccc(C(=O)NC2CC2)nn1` [Example 62, 6-[3-(4-Fluoro-phenyl)-5-methyl-isoxazol-4-ylmethoxy]-pyridazine-3-carboxylic acid cyclopropylamide], with 1.7 nM.
As to `Cc1onc(-c2ccccc2)c1COc1ccc(C(=O)NC(C)(C)CO)nn1` [Example 13, 6-(5-Methyl-3-phenyl-isoxazol-4-ylmethoxy)-pyridazine-3-carboxylic acid (2-hydroxy-1,1-dimethyl-ethyl)-amide], the Ki stood at 7.7 nM.
On to `CCOC(=O)c1ccc(OCc2c(-c3cccc(F)c3)noc2C)nn1` [Example 49, 6-[3-(3-Fluoro-phenyl)-5-methyl-isoxazol-4-ylmethoxy]-pyridazine-3-carboxylic acid ethyl ester], for which the Ki was 9.6 nM.
Still for that read-out and setting: the value for `Cc1onc(-c2ccccc2)c1COc1ccc(N2CCCC2=O)nn1` [Example 27, 1-[6-(5-Methyl-3-phenyl-isoxazol-4-ylmethoxy)-pyridazin-3-yl]-pyrrolidin-2-one] was 4 nM; that for `Cc1onc(-c2cccc(F)c2)c1CNc1ccc(C(=O)NCC(F)(F)F)nn1` [Example 118, 6-{[3-(3-Fluoro-phenyl)-5-methyl-isoxazol-4-ylmethyl]-amino}-pyridazine-3-carboxylic acid (2,2,2-trifluoro-ethyl)-amide] was 28.9 nM; that for `Cc1onc(-c2ccccn2)c1COc1ccc(C(=O)N2CCS(=O)(=O)CC2)nn1` [Example 99, (1,1-Dioxo-1λ6-thiomorpholin-4-yl)-[6-(5-methyl-3-pyridin-2-yl-isoxazol-4-ylmethoxy)-pyridazin-3-yl]-methanone] was 18.1 nM.
On to `CC(C)NC(=O)c1ccc(OCc2conc2-c2ccc(F)cc2)nn1` [Example 121, 6-[3-(4-Fluoro-phenyl)-isoxazol-4-ylmethoxy]-pyridazine-3-carboxylic acid isopropylamide], for which the Ki was 27.6 nM.
